# Experimental data as given in the supplement of paper PMC10307832.
# Compound: COC1=CC=C(C=C1)COC2=C(C=C(C=C2)CC3=CN=C(N=C3N)N)OC [GW-2580] + Cc1nc(Nc2ncc(C(=O)Nc3c(C)cccc3Cl)s2)cc(N2CCN(CCO)CC2)n1 [Dasatinib] (partner 0.075 µM)
# Assay: relative viability (nuclei count vs DMSO), 5 days (fraction); higher = more cells survive
# Settings: first compound 0.08 µM
# Method in brief: (§1)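 Relative viability was taken as the ratio of nuclei in treated wells to nuclei in vehicle wells. Lung cancer cell lines in 1536-well plates received compounds by pin tool one day after seeding, either one drug alone or a fixed anchor-drug dose plus five library-drug doses (not always all listed) in √10 steps. Nuclei were counted on 4× images after 5 days of treatment, and values are medians of duplicate plates.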
row,Cell Line,relative viability
1,NCI-H3122,0.947
2,NCI-H1437,0.422
3,NCI-H1755,0.488
4,NCI-H2023,0.636
5,HCC-15,0.639
6,PC-14,0.347
7,EKVX,0.613
8,LC-2-ad,0.715
9,NCI-H1975,0.406
10,RERF-LC-KJ,0.896
11,NCI-H650,0.468
12,PC-3 [JPC-3],0.986

# Same assay, conditions: first compound 0.8 µM
row,Cell Line,relative viability
1,NCI-H3122,1.01
2,NCI-H1437,0.411
3,NCI-H1755,0.553
4,NCI-H2023,0.652
5,HCC-15,0.73
6,PC-14,0.281
7,EKVX,0.655
8,LC-2-ad,0.771
9,NCI-H1975,0.388
10,RERF-LC-KJ,0.893
11,NCI-H650,0.538
12,PC-3 [JPC-3],1.14

# Same assay, conditions: first compound 2.53 µM
row,Cell Line,relative viability
1,NCI-H3122,0.655
2,NCI-H1437,0.36
3,NCI-H1755,0.388
4,NCI-H2023,0.542
5,HCC-15,0.629
6,PC-14,0.228
7,EKVX,0.431
8,LC-2-ad,0.737
9,NCI-H1975,0.379
10,RERF-LC-KJ,0.797
11,NCI-H650,0.396
12,PC-3 [JPC-3],0.845

# Same assay, conditions: first compound 8 µM
row,Cell Line,relative viability
1,NCI-H3122,0.812
2,NCI-H1437,0.271
3,NCI-H1755,0.396
4,NCI-H2023,0.587
5,HCC-15,0.578
6,PC-14,0.218
7,EKVX,0.527
8,LC-2-ad,0.55
9,NCI-H1975,0.315
10,RERF-LC-KJ,0.71
11,NCI-H650,0.424
12,PC-3 [JPC-3],1.03

# Compound: COC1=CC=C(C=C1)COC2=C(C=C(C=C2)CC3=CN=C(N=C3N)N)OC [GW-2580] + Nc1nc2[nH]cc(CCc3ccc(C(=O)N[C@@H](CCC(=O)O)C(=O)O)cc3)c2c(=O)[nH]1 [Pemetrexed] (partner 0.2 µM)
# Assay: as above
# Settings: first compound 0.08 µM
# Method in brief: as §1
row,Cell Line,relative viability
1,NCI-H3122,0.212
2,NCI-H1437,0.297
3,NCI-H1755,0.677
4,NCI-H2023,0.344
5,HCC-15,0.228
6,PC-14,0.14
7,EKVX,0.434
8,LC-2-ad,0.268
9,NCI-H1975,0.311
10,RERF-LC-KJ,0.491
11,NCI-H650,1.04
12,PC-3 [JPC-3],0.908

# Same assay, conditions: first compound 0.8 µM
row,Cell Line,relative viability
1,NCI-H3122,0.211
2,NCI-H1437,0.307
3,NCI-H1755,0.474
4,NCI-H2023,0.279
5,HCC-15,0.235
6,PC-14,0.136
7,EKVX,0.392
8,LC-2-ad,0.285
9,NCI-H1975,0.309
10,RERF-LC-KJ,0.44
11,NCI-H650,1.11
12,PC-3 [JPC-3],1.39

# Same assay, conditions: first compound 2.53 µM
row,Cell Line,relative viability
1,NCI-H3122,0.203
2,NCI-H1437,0.299
3,NCI-H1755,0.429
4,NCI-H2023,0.238
5,HCC-15,0.235
6,PC-14,0.137
7,EKVX,0.355
8,LC-2-ad,0.253
9,NCI-H1975,0.323
10,RERF-LC-KJ,0.504
11,NCI-H650,0.792
12,PC-3 [JPC-3],0.861

# Same assay, conditions: first compound 8 µM
row,Cell Line,relative viability
1,NCI-H3122,0.207
2,NCI-H1437,0.273
3,NCI-H1755,0.43
4,NCI-H2023,0.205
5,HCC-15,0.251
6,PC-14,0.127
7,EKVX,0.358
8,LC-2-ad,0.278
9,NCI-H1975,0.309
10,RERF-LC-KJ,0.523
11,NCI-H650,0.855
12,PC-3 [JPC-3],0.658

# Compound: Cc1cnc(Nc2ccc(OCCN3CCCC3)cc2)nc1Nc1cccc(S(=O)(=O)NC(C)(C)C)c1 [Fedratinib] + CC(C)C[C@H](NC(=O)[C@H](Cc1ccccc1)NC(=O)c1cnccn1)B(O)O [Bortezomib] (partner 0.002 µM)
# Assay: as above
# Settings: first compound 0.1 µM
# Method in brief: as §1
row,Cell Line,relative viability
1,NCI-H3122,0.991
2,NCI-H1437,0.432
3,NCI-H1755,0.938
4,NCI-H2023,1.08
5,HCC-15,1.04
6,PC-14,0.885
7,EKVX,1.11
8,LC-2-ad,1.04
9,NCI-H1975,0.388
10,RERF-LC-KJ,1.06
11,PC-3 [JPC-3],0.796

# Same assay, conditions: first compound 0.3162 µM
row,Cell Line,relative viability
1,NCI-H3122,0.981
2,NCI-H1437,0.473
3,NCI-H1755,0.92
4,NCI-H2023,0.95
5,HCC-15,0.963
6,PC-14,0.81
7,EKVX,1.11
8,LC-2-ad,0.96
9,NCI-H1975,0.405
10,RERF-LC-KJ,1.16
11,NCI-H650,0.84
12,PC-3 [JPC-3],0.781

# Same assay, conditions: first compound 1 µM
row,Cell Line,relative viability
1,NCI-H3122,0.485
2,NCI-H1437,0.191
3,NCI-H1755,0.903
4,NCI-H2023,0.0957
5,HCC-15,0.469
6,PC-14,0.951
7,EKVX,1.06
8,LC-2-ad,0.0819
9,NCI-H1975,0.163
10,RERF-LC-KJ,1.05
11,NCI-H650,0.77
12,PC-3 [JPC-3],0.869

# Compound: Cc1cnc(Nc2ccc(OCCN3CCCC3)cc2)nc1Nc1cccc(S(=O)(=O)NC(C)(C)C)c1 [Fedratinib] + Cc1cc(Nc2cc(N3CCN(C)CC3)nc(Sc3ccc(NC(=O)C4CC4)cc3)n2)n[nH]1 [Tozasertib] (partner 0.1 µM)
# Assay: as above
# Settings: first compound 0.1 µM
# Method in brief: as §1
row,Cell Line,relative viability
1,NCI-H3122,0.259
2,NCI-H1437,0.398
3,NCI-H1755,0.53
4,NCI-H2023,0.226
5,HCC-15,0.165
6,PC-14,0.436
7,EKVX,0.359
8,LC-2-ad,0.335
9,NCI-H1975,0.44
10,RERF-LC-KJ,0.292
11,NCI-H650,0.312
12,PC-3 [JPC-3],0.833

# Same assay, conditions: first compound 0.3162 µM
row,Cell Line,relative viability
1,NCI-H3122,0.362
2,NCI-H1437,0.417
3,NCI-H1755,0.524
4,NCI-H2023,0.289
5,HCC-15,0.339
6,PC-14,0.59
7,EKVX,0.343
8,LC-2-ad,0.423
9,NCI-H1975,0.734
10,RERF-LC-KJ,0.38
11,NCI-H650,0.764
12,PC-3 [JPC-3],0.894

# Same assay, conditions: first compound 1 µM
row,Cell Line,relative viability
1,NCI-H3122,0.299
2,NCI-H1437,0.368
3,NCI-H1755,0.523
4,NCI-H2023,0.281
5,HCC-15,0.341
6,PC-14,0.583
7,EKVX,0.407
8,LC-2-ad,0.41
9,NCI-H1975,0.389
10,RERF-LC-KJ,0.347
11,NCI-H650,0.69
12,PC-3 [JPC-3],0.864

# Compound: Cc1cnc(Nc2ccc(OCCN3CCCC3)cc2)nc1Nc1cccc(S(=O)(=O)NC(C)(C)C)c1 [Fedratinib] + Cc1nc(Nc2ncc(C(=O)Nc3c(C)cccc3Cl)s2)cc(N2CCN(CCO)CC2)n1 [Dasatinib] (partner 0.075 µM)
# Assay: as above
# Settings: first compound 0.1 µM
# Method in brief: as §1
row,Cell Line,relative viability
1,NCI-H3122,0.747
2,NCI-H1437,0.301
3,NCI-H1755,0.351
4,NCI-H2023,0.614
5,HCC-15,0.508
6,PC-14,0.167
7,EKVX,0.498
8,LC-2-ad,0.702
9,NCI-H1975,0.329
10,RERF-LC-KJ,0.683
11,NCI-H650,0.378
12,PC-3 [JPC-3],1.11

# Same assay, conditions: first compound 0.3162 µM
row,Cell Line,relative viability
1,NCI-H3122,0.738
2,NCI-H1437,0.409
3,NCI-H1755,0.404
4,NCI-H2023,0.476
5,HCC-15,0.58
6,PC-14,0.272
7,EKVX,0.681
8,LC-2-ad,0.636
9,NCI-H1975,0.362
10,RERF-LC-KJ,0.768
11,NCI-H650,0.434
12,PC-3 [JPC-3],0.905

# Same assay, conditions: first compound 1 µM
row,Cell Line,relative viability
1,NCI-H3122,0.816
2,NCI-H1437,0.329
3,NCI-H1755,0.39
4,NCI-H2023,0.394
5,HCC-15,0.337
6,PC-14,0.143
7,EKVX,0.532
8,LC-2-ad,0.266
9,NCI-H1975,0.285
10,RERF-LC-KJ,0.655
11,NCI-H650,0.394
12,PC-3 [JPC-3],0.966

# Compound: Cc1cnc(Nc2ccc(OCCN3CCCC3)cc2)nc1Nc1cccc(S(=O)(=O)NC(C)(C)C)c1 [Fedratinib] + O=C(CCCCCCC(=O)Nc1ccccc1)NO [Vorinostat] (partner 1 µM)
# Assay: as above
# Settings: first compound 0.1 µM
# Method in brief: as §1
row,Cell Line,relative viability
1,NCI-H3122,1.07
2,NCI-H1437,0.816
3,NCI-H1755,0.761
4,NCI-H2023,0.826
5,HCC-15,0.875
6,PC-14,0.761
7,EKVX,0.736
8,LC-2-ad,0.582
9,NCI-H1975,0.744
10,RERF-LC-KJ,0.66
11,NCI-H650,0.381
12,PC-3 [JPC-3],0.719

# Same assay, conditions: first compound 0.3162 µM
row,Cell Line,relative viability
1,NCI-H3122,1
2,NCI-H1437,0.892
3,NCI-H1755,0.786
4,NCI-H2023,0.626
5,HCC-15,0.824
6,PC-14,0.83
7,EKVX,0.737
8,LC-2-ad,0.804
9,NCI-H1975,0.702
10,RERF-LC-KJ,0.669
11,NCI-H650,0.42
12,PC-3 [JPC-3],0.978

# Same assay, conditions: first compound 1 µM
row,Cell Line,relative viability
1,NCI-H3122,0.988
2,NCI-H1437,0.922
3,NCI-H1755,0.705
4,NCI-H2023,0.547
5,HCC-15,0.845
6,PC-14,0.727
7,EKVX,0.728
8,LC-2-ad,0.705
9,NCI-H1975,0.603
10,RERF-LC-KJ,0.573
11,NCI-H650,0.332
12,PC-3 [JPC-3],0.676
